Laboratory results taken from US7098243B2, “Bicyclic carbohydrates as antiviral bioactives for the treatment of infections caused by the alphaherpesvirinae HSV-1 and HSV-2” (Kemin Pharma Europe B.V.B.A., priority 2003, dated 2006).
In brackets after ≈: the same amount, converted by molar mass. Entries after “also recorded” stand apart in the source; their conditions may differ. Where two headings read alike, the source gives them in different places.

Tests used:
[1] = tested on: herpes simplex virus type 1 (HSV-1); assay: Cytopathic effect inhibition assay (CPE) against HSV-1 in HFF cells; conditions: for EC50: Human alphaherpesvirus 1, HFF
[2] = tested on: herpes simplex virus type 2 (HSV-2); assay: Cytopathic effect inhibition assay (CPE) against HSV-2 in HFF cells; conditions: for EC50: Human alphaherpesvirus 2, HFF
Vero cells = conditions: West Nile screening, reduction of cell viability by 50%
[3] = tested on: Aspergillus fumigatus ATCC 2895; assay: Antifungal microdilution screening (Bioscreen C), A. fumigatus; assay type: cell-based; conditions: 3 days at 30° C., RPMI 1640
HFF cells = assay: Toxicity (reduction of cell viability) in the HSV, HCMV and VZV screenings; assay type: cell-based; conditions: reduction of cell viability by 50%
[4] = tested on: Cryptococcus neoformans ATCC 90112; assay: Antifungal microdilution screening (Bioscreen C), C. neoformans; assay type: cell-based; conditions: 48 hours at 35° C., RPMI 1640
[5] = tested on: Candida albicans ATCC 24433; assay: Antifungal microdilution screening (Bioscreen C), C. albicans; assay type: cell-based; conditions: 24 hours at 35° C., RPMI 1640
[6] = tested on: Pseudomonas aeruginosa ATCC 27853; assay: Antibacterial microdilution screening (Bioscreen C), P. aeruginosa; assay type: cell-based; conditions: 16 hours at 35° C., Mueller-Hinton broth
[7] = tested on: Staphylococcus aureus ATCC29213; assay: Antibacterial microdilution screening (Bioscreen C), S. aureus; assay type: cell-based; conditions: 16 hours at 35° C., Mueller-Hinton broth
[8] = tested on: human cytomegalo virus (HCMV); assay: Inhibition of viral-induced cytopathicity, HCMV in HFF cells; assay type: cell-based
E. coli ATCC 25922 = assay: Antibacterial microdilution screening (Bioscreen C), E. coli; assay type: cell-based; conditions: 16 hours at 35° C., Mueller-Hinton broth
[9] = tested on: Clostridium perfringens ATCC 13124; assay type: cell-based; conditions: 16 hours at 35° C., Mueller-Hinton broth
[10] = tested on: Trichophyton mentagrophytes ATCC 9533; assay: Antifungal microdilution screening (Bioscreen C), T. mentagrophytes; assay type: cell-based; conditions: 5 days at 30° C., RPMI 1640
West Nile virus = assay: Inhibition of viral-induced cytopathicity, West Nile virus in Vero cells; assay type: cell-based
[11] = tested on: varicella zoster virus (VZV); assay: Inhibition of viral-induced cytopathicity, VZV in HFF cells; assay type: cell-based
[12] = compounds related to Compound A1 (Table 4)
[13] = viral-induced cytopathicity in HFF cell cultures

Structure (SMILES): CCO[C@@H]1[C@@H](OCC)[C@H](Cc2ccccc2)O[C@@H]2CO[C@@H](c3ccccc3)O[C@@H]12
- EC50 ([1]; read-out: EC50 HSV-1): > 80 µg/mL
- EC50 ([2]; read-out: EC50 HSV-2): > 80 µg/mL

Structure (SMILES): CO[C@@H]1[C@@H](OC)[C@H](Cc2ccccc2)O[C@@H]2CO[C@@H](c3ccc(Cl)cc3)O[C@@H]12
- EC50 ([1]; read-out: EC50 HSV-1): > 16 µg/mL
- EC50 ([2]; read-out: EC50 HSV-2): > 16 µg/mL

Structure (SMILES): C=CCO[C@@H]1[C@@H](OCC=C)[C@H](Cc2ccccc2)O[C@@H]2CO[C@@H](c3ccc(Cl)cc3)O[C@@H]12
- EC50 HSV-1 [1, 12]: >16 µg/mL
- EC50 HSV-2 [2, 12]: >16 µg/mL

Structure (SMILES): Nc1nc2c(ncn2COCCO)c(=O)[nH]1 [ACV, Acyclovir, reference compound]
- EC50 ([1]; read-out: ACV EC50): 1.2 µg/mL (≈ 5.33 µM)
- EC50 ([2]; read-out: ACV EC50): 0.4 µg/mL (≈ 1.78 µM)

Structure (SMILES): CCO[C@@H]1[C@@H](OCC)[C@H](Cc2ccccc2)O[C@@H]2CO[C@@H](c3ccc(Cl)cc3)O[C@@H]12 [Compound A1]
- Compound A1 S.I. (CC50/EC50) ([1]; HSV-1): >33.3
- Compound A1 EC50 ([1]; HSV-1, viral-induced cytopathicity in HFF cell cultures): 3 µg/mL
- Activity against HSV-1 (in words) ([1]; anti-viral screening): strong activity
- Compound A1 CC50 (Vero cells): 50 µg/mL
- MIC A. fumigatus ATCC 2895 [3]: >25 µg/mL
- Compound A1 CC50 (HFF cells; HCMV screening): 71.0 µg/mL
- Compound A1 CC50 (HFF cells; HSV-1 screening): >100 µg/mL
- Compound A1 CC50 (HFF cells; HSV-2 screening): >100 µg/mL
- Compound A1 CC50 (HFF cells; VZV screening): >100 µg/mL
- MIC C. neoformans ATCC 90112 [4]: >25 µg/mL
- MIC C. albicans ATCC 24433 [5]: >25 µg/mL
- MIC P. aeruginosa ATCC 27853 [6]: >25 µg/mL
- MIC S. aureus ATCC 29213 [7]: >25 µg/mL
- Compound A1 S.I. (CC50/EC50) [8]: <3.5
- Compound A1 EC50 [8, 13]: > 20 µg/mL
- MIC E. coli ATCC 25922 (E. coli ATCC 25922): >25 µg/mL
- MIC C. perfringens ATCC 13124 [9]: >25 µg/mL
- MIC T. mentagrophytes ATCC 9533 [10]: >25 µg/mL
- Compound A1 S.I. (CC50/EC50) (West Nile virus; West Nile): 0
- Compound A1 EC50 (West Nile virus; West Nile virus, Vero cells): > 50 µg/mL
- Compound A1 S.I. (CC50/EC50) ([2]; HSV-2): >3333
- Compound A1 EC50 ([2]; HSV-2, viral-induced cytopathicity in HFF cell cultures): < 0.03 µg/mL
- Activity against HSV-2 (in words) ([2]; anti-viral screening): strong activity; also recorded: superior effect against HSV-2
- Compound A1 S.I. (CC50/EC50) [11]: 0
- Compound A1 EC50 [11, 13]: > 100 µg/mL

Structure (SMILES): Nc1nc(O)c2ncn(COC(CO)CO)c2n1 [GCV, ganciclovir, reference compound]
- EC50 ([8]; Human betaherpesvirus 5, HFF, reference product, read-out: GCV EC50): 0.8 µg/mL (≈ 3.13 µM)
